In ChEMBL document CHEMBL1145489, “Isoniazid induces its own resistance in nonreplicating Mycobacterium tuberculosis” (Antimicrob Agents Chemother, 2007):
≈ marks a conversion by molar mass, not a printed value.

Legend:
Type in all cases: functional
[1] = system: Mycobacterium tuberculosis; assay: Antimicrobial activity against Mycobacterium tuberculosis H37Rv subculture 4 with wild type katG mutation in presence of catalase activity
[2] = system: Mycobacterium tuberculosis; assay: Antimicrobial activity against Mycobacterium tuberculosis H37Rv subculture 3 with katG D329H mutant
[3] = system: Mycobacterium tuberculosis; assay: Antimicrobial activity against Mycobacterium tuberculosis H37Rv subculture 1 with wild type katG mutation
[4] = system: Mycobacterium tuberculosis; assay: Antimicrobial activity against Mycobacterium tuberculosis H37Rv subculture 6 with katG W328R mutant
[5] = system: Mycobacterium tuberculosis; assay: Antimicrobial activity against Mycobacterium tuberculosis H37Rv subculture 5 with wild type katG mutation in absence of catalase activity

NNC(=O)c1ccncc1 [ISONIAZID]
MIC [1]: >2 µg/mL
MIC [2]: >2 µg/mL
MIC [3]: 0.4 µg/mL (≈ 2.92 µM)
MIC [4]: >2 µg/mL
MIC [5]: 0.4 µg/mL (≈ 2.92 µM)
